Results reported in patent US11419335B2, “N-arylated analogues and uses thereof” (University of Florida Research Foundation, Incorporated, priority 2016, dated 2022).
Where two headings read alike, the source gives them in different places. Marks after values point to notes of the source that are not given here.

Tests used:
[1] = tested on: Klebsiella pneumoniae (ATCC 13883); experiment: MIC broth microdilution, K. pneumoniae 13883; type: cell-based
Procedure: (§1) The minimum inhibitory concentration (MIC) for each tested compound was determined by the broth microdilution method as recommended by the Clinical and Laboratory Standards Institute (CLSI). In a 96-well plate, eleven two-fold serial dilutions of each compound were made in a final volume of 100 μL Luria Broth. Each well was inoculated with ˜10^5 bacterial cells at the initial time of incubation, prepared from a fresh log phase culture (OD600 of 0.5 to 1.0 depending on bacterial strain). The MIC was defined as the lowest concentration of compound that prevented bacterial growth after incubating 16 to 18 hours at 37° C. (MIC values were supported by spectrophotometric readings at OD600). DMSO served as our vehicle and negative control in each microdilution MIC assay. DMSO was serially diluted with a top concentration of 1% v/v.
as §1, with “for each compound was” for “for each tested compound was”, “Standards Institute (CLSI).^6 In a” for “Standards Institute (CLSI). In a”, “concentration of test compound that” for “concentration of compound that”, “37° C. The concentration range tested for each compound during this study was 0.10 to 100 μM. DMSO served” for “37° C. (MIC values were supported by spectrophotometric readings at OD600). DMSO served”, “1% v/v. All MIC values were obtained from a minimum of three independent experiments.” for “1% v/v.”

MRSE ATCC 35984 biofilms = experiment: Calgary Biofilm Device assay (MBC/MBEC), MRSE 35984; type: cell-based, Staphylococcus epidermidis
Procedure: (§2) The lid of the Calgary device was then removed, washed and transferred to another 96-well plate containing 2-fold serial dilutions of the test compounds (the “challenge plate”). The total volume of media with compound in each well in the challenge plate is 150 μL. […] The lid was then removed from the challenge plate and MBC/MBEC values were determined using different final assays. […] The MBC values were determined as the concentration giving a lack of visible bacterial growth (i.e., turbidity). […] In select experiments, pegs from the Calgary device were removed from lead biofilm eradicators after final incubation, sonicated for 30 minutes in PBS and plated out to determine biofilm cell killing of lead biofilm-eradicating agents (i.e., colony forming unit per milliliter, CFU/mL).
(§3) Using a Calgary Biofilm Device, bacterial biofilms are established on pegs suspended to the bottom of a 96-well plate lid. Following biofilm establishment on lid pegs, lids are then transferred to new 96-well plates containing serial dilutions of test compound and allowed to incubate. After compound treatment, 96-well plate lids with pegs are once again transferred to 96-well plates containing fresh media. During this final phase of the assay, viable biofilms will grow and disperse planktonic cells into the media where they will grow and give a turbid well result. Conversely, wells that have no growth are a result of pegs that had eradicated bacterial biofilms. The lowest concentration at which no turbidity is observed is the minimum biofilm eradication concentration (MBEC). Using the Calgary Biofilm Device, both minimum biofilm eradication concentrations and minimum bactericidal concentrations (MBC) for planktonic bacterial can be determined using one assay from a single bacterial culture (FIG. 3A).

VRE ATCC 700221 biofilms = experiment: Calgary Biofilm Device assay (MBC/MBEC), VRE 700221; type: cell-based, Enterococcus faecium; conditions: for VRE 700221 MBEC: biofilm; for VRE MBC / VRE MBEC: Table 2A
Procedure: as §2, §3

C. albicans SC5314 [2] = experiment: Fungal MIC susceptibility assay, C. albicans; type: cell-based, Candida albicans; conditions: for C. albicans SC5314 MIC: Table 2B
Procedure: (§4) Fungal minimum inhibition concentrations (MICs) were determined using standard microdilution methods according to the Clinical and Laboratory Standards Institute document M27-A3. The test compound concentration ranged from 0.01 to 100 μM. Amphotericin B (AmB) and itraconazole (ITC) (Fisher Scientific) were included as positive controls. DMSO, the vehicle control, was used at ≤1% v/v for these experiments. The fungal M27-A3 standard MIC assay protocol requires the following inoculum preparation protocol: The organisms were cultured onto PDA medium at 35° C. The inoculum is prepared by picking five colonies from 24-hour old culture of Candida spp. or 48-hour old culture of C. neoformans. The inoculum was suspended in 5 ml of sterile water, the resulting suspension was vortexed for 15 seconds and the cell density adjusted (by adding more sterile water) to an OD530=0.30, which yields a suspension of 1×10^6 to 5×10^6 cells per mL. The suspension was diluted 50 times and then 20 times using RPMI 1640 medium to obtain the two times test inoculum (1×10^3 to 5×10^3 cells per mL). The following steps are the same with the standard bacterial MIC protocol using 96-well plates. NOTE: RPMI 1640 medium was used in the fungal MIC assay (for both cell inoculum and compound dilution).

C. neoformans ATCC 66031 = experiment: Fungal MIC susceptibility assay, C. neoformans; type: cell-based; conditions: for C. neoformans 66031 MIC: Table 2B
Procedure: as §4

C. albicans SC5314 [3] = experiment: Minimum fungicidal concentration assay, C. albicans; type: cell-based, Candida albicans; conditions: Table 2B
[4] = tested on: C. albicans SC5314 biofilms; experiment: MTT assay for fungal biofilm eradication (MBEC), C. albicans; type: cell-based, Candida albicans; conditions: Table 2B, 90% eradicated biofilm
Procedure: One colony was picked from a 24-hour old culture of Candida spp. or 48-hour old culture of C. neoformans and added to YPD liquid medium for inoculation and cultured at 37° C. overnight. Cells were then washed with PBS (Phosphate-buffered saline (10 mM potassium phosphate, 150 mM NaCl, pH 7.0)) and standardized to OD600=1.0. Microtiter wells were then treated with 50% FCS (Fetal calf serum) in PBS for at least 30 min at room temperature (FCS pre-treatment is not absolutely required for Candida spp.). The FCS was aspirated and microtiter wells were rinsed once with 200 μL PBS before 100 μL of the cell suspension was added to each microtiter well. The plate was then incubated statically at 37° C. for 2 hours. Non-adherent cells were then removed by aspiration and microtiter wells were washed with PBS twice to remove loosely associated cells.
The resulting cell culture was aspirated and wells were rinsed once with 200 μL PBS. Controls and compounds were diluted in YNB medium (200 μL) were added to microtiter wells.
Following incubation, the culture was aspirated and wells are rinsed twice with 200 μL PBS before 100 μL of MTT (0.5 mg/mL dissolved in PBS containing 1% glucose) was added to each microtiter well. The plate was then incubated at 37° C. for 30 min, or longer, until dark blue/black crystals formation could be observed (usually 2 hours at most). The MTT reaction was terminated by aspiration of the solution. The crystals were then solubilized by adding 100 μL of 40% acetic acid to the microtiter wells. Killing efficacies were monitored by eye or quantitatively measured using a plate reader (absorbance at 550 nm). MBEC values were determined as the lowest compound concentration leading to 90% eradicated biofilm. All MBEC values using the MTT assay were recorded from at least three independent experiments.

[5] = Table 2, CBD assay, planktonic cells

Row | SMILES | MRSE 35984 MBEC (MRSE ATCC 35984 biofilms; Table 2, CBD assay, biofilm) | VRE 700221 MBEC (VRE ATCC 700221 biofilms; Table 2, CBD assay) | MIC K. pneu. 13883 ([1]; Table 4) | MRSE 35984 MBC (MRSE ATCC 35984 biofilms; Table 2A, CBD assay) | MRSE 35984 MBEC (MRSE ATCC 35984 biofilms; Table 2A, CBD assay) | VRE MBC (VRE ATCC 700221 biofilms; CBD assay) | VRE MBEC (VRE ATCC 700221 biofilms; CBD assay) | C. albicans SC5314 MIC (C. albicans SC5314 [2]) [µM] | MIC C. albicans SC5314 (C. albicans SC5314 [2]; Table 4, antifungal) [µM] | C. neoformans 66031 MIC (C. neoformans ATCC 66031) [µM] | MIC C. neof 66031 (C. neoformans ATCC 66031; Table 4, antifungal) [µM] | C. albicans SC5314 MBC (C. albicans SC5314 [3]) [µM] | C. albicans SC5314 MBEC [4] | also measured
1 | CCCCCCCCCCCCCCCCn1cc[n+](Cc2ccccc2)c1C [NH125, 3-benzyl-1-hexadecyl-2-methyl-1H-imidazol-3-ium bromide, reference compound] | 5.9 µM | 11.7 µM | – | – | – | – | – | – | – | – | – | – | – | MIC ([1]; Klebsiella pneumoniae, ATCC13883, Table 1, read-out: MIC K. pneumoniae 13883): 18.8 µM; MIC ([1]; Klebsiella pneumoniae, ATCC13883, Table 4, read-out: MIC K. pneu. 13883): 18.8 µM; MBC (MRSE ATCC 35984 biofilms; Staphylococcus epidermidis, Table 2, CBD assay, planktonic cells): 15.6 µM; MBC (VRE ATCC 700221 biofilms; Enterococcus, Table 2, CBD assay, planktonic cells): 59 µM; MIC (C. albicans SC5314 [2]; Candida albicans, SC5314, Table 4, antifungal): 3.13 µM; MIC (C. neoformans ATCC 66031; Cryptococcus neoformans, ATCC66031, Table 4, antifungal, read-out: MIC C. neof 66031): 3.13 µM
2 | CCCCCCCCCCCCCCCCn1cc[n+](C)c1C.[I-] [Compound 8] | – | – | 12.5 µM | 3.0^a/ μM | 3.0^a μM | 3.9/3.9 μM | 3.9/3.9 μM | 3.13 | 3.13 | 1.56 | 6.25 | 6.25 | 15.63 | –
3 | CCCCCCCCCCCCCCCCn1cc[n+](Cc2cccc(F)c2)c1C.[Br-] [Compound 18] | – | – | – | 11.7^a/ μM | 11.7^a μM | 5.85^a/ μM | 11.7^a μM | – | – | – | – | – | – | –
4 | CCCCCCCCCCCCCCCC[N+](C)(C)Cc1ccccc1.[Cl-] [BAC-16, reference compound] | – | – | 9.38a micromolar | – | – | – | – | 3.13 | 3.13 | 3.12 | 6.25 | 6.25 | 15.63 | –
5 | CCCCCCCCCCCC[N+](C)(C)CC[N+](C)(C)CC[N+](C)(C)CCCCCCCCCCCC [QAC-10, reference compound] | 31.3/31.3 μM | 3.0^a/3.0^a μM | 25 µM | 31.3 µM⁻¹ | 31.3 µM | 3.0^a/ μM | 3.0^a μM | – | – | – | – | – | – | MIC ([1]; Table 1, read-out: MIC K. pneumoniae 13883): 25 µM; MBEC, MRSE biofilms (MRSE ATCC 35984 biofilms; MRSE ATCC 35984): 31.3 µM; MRSE 35984 MBC (MRSE ATCC 35984 biofilms; [5]): 31.3/31.3 μM; MBEC, VRE biofilms (VRE ATCC 700221 biofilms): 3.0 µM; VRE 700221 MBC (VRE ATCC 700221 biofilms; [5]): 3.0^a/3.0^a μM
6 | CCCCCCCCCCCCCCCCn1cc[n+](CCO)c1C.[Br-] [Compound 11] | – | – | 18.8a micromolar | 3.9/3.9 μM | 3.9/3.9 μM | 3.0^a/ μM | 3.9 µM | 3.13 | 3.13 | 1.56 | 6.25 | 6.25 | 7.82 | –
